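Method: 48-hour compound exposure of cells in 96-well plates, five concentrations, linear interpolation of endpoints. Abbreviation: GI50, concentration required for 50% inhibition of growth. At the TGI there is no net growth.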

This note sets out measurements from PubChem BioAssay (NCI).

Test systems include ACHN renal; DU-145 prostate; HOP-92 NSCLC; HT29 colon; KM12 colon; NCI-H226 lung; PC-3 prostate; T-47D breast; SNB-75 CNS; KM20L2 colon.
Holding throughout (test): DTP human tumour cell line panel, 48 h

`CC1(C(=O)O)CCCC1C(=O)O` (configuration not stated): the concentration for total growth inhibition (TGI) with ACHN renal, in the assay on DU-145 prostate, with HOP-92 NSCLC, with HT29 colon, with KM12 colon and with NCI-H226 lung was greater than 100 µM throughout. Besides, the concentration for total growth inhibition (TGI) in the assay with PC-3 prostate and in the assay with T-47D breast was greater than 100 µM throughout.

With `N#Cc1c(-c2ccc(F)cc2)nc(N/N=C/c2c[nH]c3ccccc23)nc1N1CCOCC1`, the GI50 (in general, the concentration giving 50% growth inhibition) in the assay with ACHN renal is 2.24 µM; in the assay with DU-145 prostate it was 2.9 µM; in the assay on HOP-92 NSCLC, 2.44 µM; in the assay with HT29 colon, 1.11 µM; in the assay on KM12 colon, 4.96 µM; in the assay on NCI-H226 lung, 24.2 µM. Besides, the GI50 was 3.54 µM with PC-3 prostate, 3.45 µM in the assay on SNB-75 CNS and 9.16 µM in the assay with T-47D breast. In addition, the TGI (as a rule, the concentration giving total growth inhibition) in the assay on ACHN renal was 30.7 µM; in the assay on DU-145 prostate, greater than 100 µM; with HOP-92 NSCLC, 52.4 µM; in the assay on HT29 colon, 22.6 µM; with KM12 colon it was 68.9 µM; in the assay on NCI-H226 lung, 88 µM. For the same compound, the TGI was greater than 100 µM in the assay with PC-3 prostate, 38.4 µM in the assay on SNB-75 CNS and 40 µM in the assay on T-47D breast.

As for `CCN1CCC(O)(C(C(=O)O)c2ccccc2)CC1` (configuration not stated), the TGI in the assay with ACHN renal, with DU-145 prostate, in the assay with HT29 colon, in the assay with KM12 colon, with NCI-H226 lung and in the assay on PC-3 prostate was greater than 100 µM in each case. In addition, the TGI with SNB-75 CNS and in the assay on T-47D breast was greater than 100 µM each time.

For the compound `COc1c(Br)cc(CC(N)=O)c(O)c1Br`, the TGI with ACHN renal, with HOP-92 NSCLC, in the assay on HT29 colon, in the assay on KM12 colon, with KM20L2 colon and in the assay with NCI-H226 lung was greater than 100 µM each time. In addition, the TGI in the assay on SNB-75 CNS is greater than 100 µM.

On to `OC1(c2ccc(Cl)cc2)c2ccc3ccccc3c2C2=N[C@H]3CCCC[C@@H]3N21` (some centres not stated), for which the TGI was greater than 100 µM with ACHN renal; 37.2 µM in the assay with DU-145 prostate; 77.3 µM in the assay on HOP-92 NSCLC; greater than 100 µM in the assay on KM12 colon; greater than 100 µM in the assay with NCI-H226 lung; 51.2 µM in the assay on PC-3 prostate. Further, in the assay on T-47D breast, the total growth inhibition concentration (TGI) is 26.5 µM.

On to `CCC(C(=O)c1ccc(OC)c(OC)c1)N(C(=O)C(F)(F)F)C(C)c1ccccc1` (configuration not stated), for which the TGI in the assay with ACHN renal, in the assay with DU-145 prostate, in the assay with HT29 colon, with PC-3 prostate and in the assay on T-47D breast was greater than 100 µM each time.

For `NC(N)=Nc1ncccc1[N+](=O)[O-]`, the total growth inhibition concentration (TGI) with HOP-92 NSCLC was greater than 100 µM; in the assay with HT29 colon, greater than 100 µM; with KM12 colon, greater than 100 µM; in the assay on KM20L2 colon it was 70.2 µM; with NCI-H226 lung, greater than 100 µM; in the assay on SNB-75 CNS, greater than 100 µM.

For the compound `COc1cc(/C=C\C(=O)O)ccc1OCc1ccccc1`, the TGI with ACHN renal, in the assay on DU-145 prostate, in the assay with HOP-92 NSCLC, with KM12 colon, with PC-3 prostate and in the assay on T-47D breast was greater than 100 µM throughout.

Take `O=c1oc2cc(O)ccc2c(O)c1C(c1ccc(C(c2c(O)c3ccc(O)cc3oc2=O)c2c(O)c3ccc(O)cc3oc2=O)cc1)c1c(O)c2ccc(O)cc2oc1=O`: the TGI with DU-145 prostate, in the assay with HOP-92 NSCLC, with HT29 colon, with NCI-H226 lung, in the assay with PC-3 prostate and with SNB-75 CNS was greater than 100 µM each time. The TGI with T-47D breast was greater than 100 µM.

Regarding `O=C(N/N=C/c1cc(Br)cc(Br)c1[O-])c1ccccc1O.O=C(N/N=C/c1cc(Br)cc(Br)c1[O-])c1ccccc1O.[Fe+2]`, the total growth inhibition concentration (TGI) in the assay with ACHN renal was 21.1 µM; with HOP-92 NSCLC, 6.89 µM; with HT29 colon, 19.7 µM; with KM12 colon it was 23.9 µM; with KM20L2 colon, 17.4 µM; in the assay with NCI-H226 lung, 7.41 µM. For the same compound, in the assay on SNB-75 CNS, the TGI worked out at 27.7 µM.

As for `O=C(CC1=NCCN1)c1ccccc1`, the TGI is greater than 750 µM in the assay on HOP-92 NSCLC; greater than 750 µM with HT29 colon; greater than 750 µM with KM12 colon; greater than 750 µM with KM20L2 colon; 742 µM in the assay with NCI-H226 lung; greater than 750 µM with SNB-75 CNS.

On to `O=C1C(Cl)N(c2ccccc2[N+](=O)[O-])C1c1c[nH]c2ccccc12` (configuration not stated), for which the concentration for total growth inhibition (TGI) in the assay with HOP-92 NSCLC, in the assay with HT29 colon, in the assay on KM12 colon, with KM20L2 colon and with SNB-75 CNS was greater than 100 µM each time.

With `O=C(Nc1cccc(O)c1)C(=O)C(C(=O)c1ccccc1F)C1OC(=O)c2ccccc21` (configuration not stated), the TGI with ACHN renal was greater than 100 µM; in the assay with HOP-92 NSCLC, greater than 100 µM; with HT29 colon, greater than 100 µM; in the assay on KM12 colon, 71 µM; in the assay on KM20L2 colon it was 58.9 µM; with NCI-H226 lung, 49.1 µM. Moreover, the TGI with SNB-75 CNS amounted to 53.1 µM.
